Measured values as given in PubChem BioAssay AID1645866 (Buhrlage Lab, Dana-Farber Cancer Institute and Novartis …, 2021).
Active and inactive are the calls of the source.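 The calls were made as follows: active = in confirmatory dose-response testing, peak deubiquitinase inhibition of 30% or more; inactive = the rest.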

Target: Ubiquitin carboxyl-terminal hydrolase 28 (Homo sapiens) (UniProt Q96RU2)
Assay: Concentration-response biochemical assay confirming initial hits as inhibitors of ubiquitin-specific protease 28 (AID 1645866)
Conditions: purified USP28, ubiquitin-rhodamine fluorescence, 30 min

Sequence of Ubiquitin carboxyl-terminal hydrolase 28 (Homo sapiens) (Q96RU2 whole entry, looked up): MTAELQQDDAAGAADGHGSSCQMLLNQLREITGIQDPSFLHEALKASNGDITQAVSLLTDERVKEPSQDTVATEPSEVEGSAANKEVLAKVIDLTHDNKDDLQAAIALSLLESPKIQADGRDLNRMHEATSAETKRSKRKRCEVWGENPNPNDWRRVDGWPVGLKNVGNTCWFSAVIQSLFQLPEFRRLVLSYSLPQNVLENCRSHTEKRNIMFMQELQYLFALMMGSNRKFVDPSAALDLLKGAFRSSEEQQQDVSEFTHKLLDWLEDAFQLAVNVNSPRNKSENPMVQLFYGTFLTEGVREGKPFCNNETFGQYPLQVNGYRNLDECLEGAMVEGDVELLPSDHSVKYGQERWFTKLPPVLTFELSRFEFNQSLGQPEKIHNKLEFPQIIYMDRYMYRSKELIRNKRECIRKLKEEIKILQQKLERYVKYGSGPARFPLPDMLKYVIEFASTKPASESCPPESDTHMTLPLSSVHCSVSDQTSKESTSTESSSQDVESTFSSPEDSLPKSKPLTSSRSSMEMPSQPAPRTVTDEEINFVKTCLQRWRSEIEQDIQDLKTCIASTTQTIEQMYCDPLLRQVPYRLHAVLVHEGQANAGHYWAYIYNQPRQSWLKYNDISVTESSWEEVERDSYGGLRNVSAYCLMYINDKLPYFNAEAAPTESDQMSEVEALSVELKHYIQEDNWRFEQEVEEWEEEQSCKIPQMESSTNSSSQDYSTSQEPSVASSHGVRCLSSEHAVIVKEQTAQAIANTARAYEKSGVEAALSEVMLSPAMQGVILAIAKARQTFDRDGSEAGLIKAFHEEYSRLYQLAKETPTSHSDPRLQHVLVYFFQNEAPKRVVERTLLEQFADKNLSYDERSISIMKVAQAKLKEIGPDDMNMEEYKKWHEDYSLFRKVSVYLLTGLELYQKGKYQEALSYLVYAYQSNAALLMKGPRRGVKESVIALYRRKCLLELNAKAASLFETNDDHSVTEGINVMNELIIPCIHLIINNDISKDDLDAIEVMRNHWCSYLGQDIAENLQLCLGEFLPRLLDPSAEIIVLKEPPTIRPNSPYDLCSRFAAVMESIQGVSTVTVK

IC50	SMILES
> 50 µM (inactive)	O=C(COc1nc2ccccc2nc1N1CCOCC1)Nc1cccc(S(=O)(=O)N2CCCCC2)c1
20.8 µM	Cc1nn(Cc2ccccc2)c2sc(C(=O)Nc3nc4ccccc4[nH]3)cc12
6.15 µM	CC(C)Cc1nc2sc3c(NCc4ccccc4)ncnc3c2c2c1COC(C)(C)C2
15.9 µM	O=C(CC1C(=O)N(Cc2ccccc2)c2nc3ccccc3n21)NCCc1ccccc1 (configuration not stated)
> 50 µM (inactive)	Cc1c(C(=O)c2ccccc2)c2ccccn2c1CCc1ccccn1
44 µM	Cc1ccc(CNC(=O)c2cccc(N3C(=O)N4CCc5c([nH]c6ccccc56)[C@@]4(C)C3=O)c2)cc1
> 50 µM (inactive)	CC1CCN(c2nnc(-c3nc(C4CC4)no3)c3ccccc23)CC1
12.5 µM	Cc1cc2nc(-c3ccc(SCc4ccccn4)nc3)[nH]c2cc1C
45.2 µM	COC(=O)c1cc(C#N)c(NCc2ccccc2)nc1C
> 50 µM (inactive)	CCn1c(=O)c2ccccc2n(Cc2nc(-c3ccccc3OC)no2)c1=O
37.1 µM	CC(C)CC1NC(=O)C2CCCN2C1=O (configuration not stated)
29.8 µM	CCOc1ccc(N2C(=O)c3ccccc3C2C(=O)NCc2ccccc2OC)cc1 (configuration not stated)
6.1 µM	CCN(c1ccc(NC(=O)CSc2nnc(-c3ccccc3)n2-c2ccc(OC)c(OC)c2)cc1)C(C)C
4.08 µM	COc1ccc(-c2nc3n(n2)C(CC(=O)Nc2cccc4ccccc24)C(=O)N3)cc1 (configuration not stated)
16.9 µM	Nc1ccc(NC(=O)c2cc3c(s2)CCC3)cc1[N+](=O)[O-]
12.2 µM	O=C(COc1ccc(S(=O)(=O)N2CCOCC2)cc1)N1CCC(Cc2ccccc2)CC1
28.1 µM	Cc1ccc(C(=O)NCc2ccc(C(=O)Nc3cccc(C)c3)o2)cc1
> 50 µM (inactive)	CC(=O)c1ccc(N2C(=O)N(Cc3cccc([N+](=O)[O-])c3)c3ccccc3S2(=O)=O)cc1
18 µM	O=C(Nc1ccccc1Br)c1ccn(COc2ccccc2F)n1
2.43 µM	COc1cccc(NC(=O)c2cnc3c(c2)c(=O)n(C)c(=O)n3C)c1
17.9 µM	CCC1(C)Cc2c(sc3nc(SCC(=O)Nc4ccc(C(C)=O)cc4)nc(N)c23)CO1 (configuration not stated)
24 µM	O=C(COc1ncnc2ccccc12)Nc1ccc2c(c1)OC1(CCCC1)O2
> 50 µM (inactive)	COc1ccccc1C(=O)NCC(c1ccc2c(c1)CCCN2C)N1CCCC1 (configuration not stated)
7.33 µM	COc1cccc(NC(=O)c2nnn(-c3ccccc3)n2)c1
16.2 µM	O=C(Nc1ccc2c(c1)OCCO2)C1CCN(C(=O)c2cc(-c3cccnc3)n[nH]2)CC1
2.55 µM	Cc1cc(C)c2c(-n3cccc3)c(C(=O)NCCc3ccc(S(N)(=O)=O)cc3)sc2n1

IC50	SMILES
3.38 µM	CC(=O)Nc1ccc(O)c(-c2nc3cc(C)ccc3o2)c1
1.98 µM	CSc1ncccc1C(=O)OCc1ccc(Br)cc1
31.3 µM	Cc1ccc(S(=O)(=O)N2CCC3(CC2)NC(=O)c2ccccc2N3)c(C)c1
> 50 µM (inactive)	CN1CCN(C(=O)c2cc(-c3ccn(CC4CC4)n3)n3ccccc23)CC1
> 50 µM (inactive)	Cc1ccc(CNC(=O)Cn2c(=O)n(-c3ccccc3)c3ncccc32)cc1
15.3 µM	O=C(NCc1ccc(-c2nc3cnccc3o2)cc1)c1ccccc1F
2.58 µM	CCc1cc2cc3c(cc2nc1SCC(=O)Nc1cccc(C(C)=O)c1)OCO3
> 50 µM (inactive)	O=C(Nc1cc(Cl)ccc1-n1cncn1)c1ccc(S(=O)(=O)N2CCCC2)cc1
6.69 µM	COc1cccc(NC(=O)c2ccc(-c3csc(C)n3)cc2)c1
37.5 µM	O=C(Nc1cc(F)c2nc(N3CCOCC3)ccc2c1)c1ccc(Br)o1
14 µM	O=C(CN1CCCCC1)Nc1nnc(-c2ccc([N+](=O)[O-])cc2)s1
> 50 µM (inactive)	O=C(NCc1ccc(-c2nc3cnccc3o2)cc1)c1ccccc1Br
> 50 µM (inactive)	CSc1nc2ncc3c(=O)n(CCc4ccccc4)ccc3n2n1
16.7 µM	O=C(O)CCCCCN1C(=O)CC(c2ccc(Cl)cc2)CC1=O
12.3 µM	CC1OC2CC(O)C1(O)C1=C2C(O)=C(C(N)=O)C(=N)C1=O (configuration not stated)
10.4 µM	COc1ccccc1-c1nc(-c2nnn(Cc3cccc(F)c3)c2C)no1
25.9 µM	O=C(Cn1c(=O)n(Cc2ccccc2)c(=O)c2ncccc21)NCc1ccccc1Cl
> 50 µM (inactive)	O=C(NC1CCS(=O)(=O)C1)c1ccc(N2CCC(Cc3ccccc3)CC2)nn1 (configuration not stated)
23.6 µM	O=C1CC(O)C(O)c2cccc(O)c21 (configuration not stated)
> 50 µM (inactive)	O=C(Cc1noc2ccccc12)N1CCN(c2ccc([N+](=O)[O-])cc2)CC1
> 50 µM (inactive)	CC1CCc2c(sc3nc(CC#N)[nH]c(=O)c23)C1 (configuration not stated)
4.07 µM	Cc1ccc(C)c(CSC2=NCCN2C(=O)c2ccco2)c1
0.15 µM	O=C(Nc1ccc2c(c1)N(C(=O)C1CCCC1)CC2)c1c(F)cccc1F
18.6 µM	COc1ccc(-n2c(SCC(=O)c3ccc(F)cc3)nnc2-c2cccnc2)cc1
41 µM	COc1ccc(CCC(=O)Nc2ccc3c(c2)Sc2ncccc2C(=O)N3C)cc1
> 50 µM (inactive)	CC1=C2C(=NCCN1)C(=O)N(c1ccccc1)C2c1cccnc1 (configuration not stated)

IC50	SMILES
21 µM	Cc1ccc(NC(=O)CSc2nc3c(cc2C#N)C(=O)CCC3)cc1
> 50 µM (inactive)	COc1cnc(-c2ccccn2)nc1Sc1ccc(C)cc1
1.13 µM	CC(C)NS(=O)(=O)c1ccc(CCC(=O)Nc2ccc3c(c2)OCCO3)cc1
> 50 µM (inactive)	Cc1ccccc1C(=O)OCCN1C(=O)c2cccc3c(N4CCCCC4)ccc(c23)C1=O
3.06 µM	COc1ccc(COC(=O)C2=C(C)NC(=O)CC2c2cccc([N+](=O)[O-])c2)cc1 (configuration not stated)
18 µM	O=C(CCn1c(=O)c2sccc2n(CC(=O)OCc2ccccc2)c1=O)NCc1ccc2c(c1)OCO2
22.4 µM	O=C(NCCc1ccco1)c1ccc(N2CCOc3ccccc32)s1
21 µM	CNS(=O)(=O)c1ccc(CNC(=O)c2cc(-c3ccc(C)cc3)no2)cc1
25.4 µM	O=C(Nc1ccc(N2CCOCC2)cc1)c1cc(=O)[nH]c2ccccc12
23 µM	Cc1c(CC(=O)N2CCN(c3ncccn3)CC2)c(=O)oc2cc(O)ccc12
< 0.05 µM	O=C(NCCN1CCCC1)C1CCN(c2cnc(N3CCCCC3)nc2)CC1
6.02 µM	Cc1ccc(NC(=O)c2ccc(Nc3nnc(C)c4ccccc34)cc2)cc1
38.5 µM	CC(C)C1Cc2c(sc3nc(SCC(=O)Nc4cccc5ccccc45)nc(N)c23)CO1 (configuration not stated)
0.108 µM	Cn1c2ccccc2c(=O)c2c(=O)n(Cc3ccccc3)c(-c3ccccc3F)nc21
> 50 µM (inactive)	Fc1cnc(N2CC[C@H]3CO[C@H](CNc4ncccn4)[C@H]3C2)nc1
2.67 µM	Cc1cc(C)c(NC(=O)Cn2c(=O)n(CCC(=O)NCc3ccc4c(c3)OCO4)c(=O)c3sccc32)c(C)c1
48.4 µM	C[C@@H]1O[C@@H](O[C@H]2[C@H](O[C@H]3[C@H](O[C@H]4CC[C@@]5(C)[C@@H](CC[C@]6(C)[C@@H]5CC=C5[C@@H]7CC(C)(C)CC(=O)[C@]7(C)CC[C@]56C)[C@@]4(C)CO)O[C@H](C(=O)O)[C@@H](O)[C@@H]3O)OC[C@@H](O)[C@@H]2O)[C@H](O)[C@H](O)[C@H]1O
3.53 µM	Cc1ccc(NC(=O)Cc2nnc3c(-c4nc(C5CC5)no4)cccn23)cc1
16.7 µM	CN(C)c1ccc(/C=N/NC(=O)c2ccc(Cl)cc2)cc1
0.985 µM	Cc1cccc(-c2nc3n(CC(=O)Nc4ccc(Cl)cc4)c(C)cc(=O)n3n2)c1
20.2 µM	CCn1cnc2ccc(C(=O)NC3CC3)cc2c1=O
9.99 µM	COc1ccc(CNC(=O)Nc2cccc3ccccc23)cc1
> 50 µM (inactive)	O=c1[nH]cccc1NS(=O)(=O)c1ccc(F)cc1
24.3 µM	O=C(c1cc(-c2ccncc2)n[nH]1)N1CCC(C(=O)N2CC=C(c3ccccc3)CC2)CC1
> 50 µM (inactive)	CNc1nc2c(c(=O)n1C)CN(C(=O)Nc1cccc3ccccc13)CC2
1.98 µM	CCOc1ccccc1NC(=O)Cn1c(=O)n(CCCC(=O)NCc2ccc(C)cc2)c(=O)c2sccc21

IC50	SMILES
34 µM	CCOc1ccc(NC(=O)CSc2nc3n[nH]c(C)c3c(=N)n2-c2ccc(OC)cc2)cc1
1.72 µM	COc1cc(-c2nc(C(N)=O)c3[nH]c(=O)n(-c4ccc(C)cc4)c3n2)cc(OC)c1OC
5.1 µM	CC(OC(=O)c1c2c(nc3ccccc13)CCCCC2)C(=O)Nc1ccc2ccccc2c1 (configuration not stated)
20.2 µM	CCC(C)c1ccc(O[C@@H]2O[C@@H]3COC(c4ccccc4)O[C@H]3[C@H](O)[C@H]2NC(C)=O)cc1 (some centres not stated)
> 50 µM (inactive)	Cc1sc(-c2cccnc2)nc1OC(=O)c1ccc(Cl)c(Cl)c1
8.42 µM	O=C(Nc1ccc(SCc2nnc(-c3ccccc3)o2)cc1)C1CC1
7.75 µM	O=C(NCc1ccc2c(c1)OCO2)c1[nH]nc2c1COc1ccccc1-2
36.3 µM	O=C(/C=C/c1c(F)cccc1Cl)N1CCc2ccccc2C1
> 50 µM (inactive)	CC(C)c1nc2sc3c(N(CCO)CCO)ncnc3c2c2c1COC(C)(C)C2
20 µM	CCc1ccc2[nH]c3c(c(=O)c2c1)CN(CC(=O)NCc1ccc2c(c1)OCO2)CC3
0.541 µM	Cc1c(OCC(=O)Nc2nc3ccccc3[nH]2)ccc2c3c(c(=O)oc12)CCC3
22 µM	COc1ccc(C)cc1NC(=O)CSc1nc(C)nc2c1oc1ccccc12
> 50 µM (inactive)	COc1ccc(-c2cc(C(F)F)n3ncc(C(=O)Nc4ccc5c(c4)OCCO5)c3n2)cc1
22.6 µM	COc1ccc(OC)c(NC(=O)c2ccc(-n3nnnc3SC)cc2)c1
2.72 µM	Cc1nn(-c2ccccc2)c(C)c1C(=O)OCC(=O)Nc1cccc(Br)c1
16.1 µM	Cc1ccc(NC(=O)c2sc3ncn(CC(=O)N4CCN(c5ccccn5)CC4)c(=O)c3c2C)c(Br)c1
20.5 µM	O=C(CSc1ncnc2c1oc1ccccc12)NC1CCCC1
0.163 µM	Cc1nc(C(=O)Nc2cccc(Cl)c2Cl)nn1-c1cc(Cl)cc(Cl)c1
28.1 µM	CC1=C(c2ccc(F)cc2)S(=O)(=O)N=C1Nc1ccc(Cl)cc1
27.4 µM	COc1cccc(CNC(=O)c2ccc(CSc3nc4ccncc4n3Cc3ccccc3F)cc2)c1
8.66 µM	N#Cc1ccc(Cn2nnc(-c3cccc(Cl)c3)n2)cc1
< 0.05 µM	CCCc1nc2sc3c(NCc4ccco4)ncnc3c2c2c1CCC2
10.7 µM	CC(C)Oc1ccc(C(=O)Nc2cccc(S(=O)(=O)N3CCCC3)c2)cc1
3.13 µM	CC(=O)c1cccc(NC(=O)c2ccc(-c3csc(C)n3)cc2)c1
